Where two headings read alike, the source gives them in different places.
Columns and labels:
T47D cells = assay: Caspase Glo 3/7 assay (apoptosis); format: cell-based, human; conditions: T47D (FIG. 5); 0.3, 10 and 300 uM
Experimental: FIGS. 5A and 5B. Effect of CGC-11047 on T47D cells with respect to cell cycle and apoptosis. In FIG. 5A, cells were treated for 72 hours with 0, 0.3, 10, or 100 μM CGC-11047. Shown are percentage of the cell population is G0-G1, S, or G2-M phase of cell growth. In FIG. 5B, cells were treated for […], 48, or 72 hours with 0.3, 10, or 300 μM CGC-11047. Shown is the caspase activity (apoptosis) of treated cells within each condition compared to untreated controls.
(§1) Caspase Glo assay: Apoptosis was measured using the Promega Caspase Glo 3/7 assay (Promega, Madison, Wis.). Lyophilized pellet was eluted in solvent to make working Caspase Glo reagent. After incubation of cells with CGC-11047 at specified concentrations for 24, 48, and 72 hours, 50 ul of Caspase Glo reagent was added to the wells. After an incubation time of 1 hour, luminescence was measured using a luminometer.
(§2) Select sensitive cell lines were treated with CGC-11047 at 0.3, 10 and 300 uM. BrdU incorporation was measured and cell cycle distribution was analyzed at 48 and 72 hrs. Apoptosis was measured using the Promega Caspase Glo 3/7 assay.

[1] = system: panel of 42 breast cancer cell lines and 6 non-cancerous breast cell lines; assay: Cell growth inhibition assay, whole panel; format: cell-based; conditions: whole breast cell line panel, 72 h
Source text: To better delineate the response of breast cancer cells to conformationally-restricted polyamines, we studied the anti-proliferation activity of CGC-11047 (SL-11047 or Compound 58 in Table 1) among the panel of 42 breast cancer cell lines and 6 non-cancerous breast cell lines (e.g., human mammary epithelial cells, HMEC) of known subtype (basal or luminal) with a plethora of genomic background mimicking the human breast tumors. Extensive genomic background of these cell lines have been reported by Neve et al. (2006).
(§3) Cell culture: Breast cell lines were obtained from the ATCC and from collections developed in the laboratories of Drs. Steve Ethier and Adi Gazdar.
Cell growth inhibition assay and data analysis: Cells were plated at proper density in 96-well plates such that they would remain in log growth at the end of assay time. The cells were allowed to attach overnight before being exposed to CGC-11047 for 72 h. Drugs were dissolved in water as 100 mM stock. […] The cell growth was determined using Cell Titer Glo (CTG) assay (CellTiter-Glo Luminescent Cell Viability Assay, Promega, Madison, Wis.), with slight modification form manufacturer's protocol, at day 0 (time when drug was added) and at day 3 of drug exposure. […] Luminescence from the assay was recorded using BIO-TEK FLx800. […]

HCC1500 = assay: Cell growth inhibition assay (Cell Titer Glo); format: cell-based, human; conditions: HCC1500, Basal B, 72 h
Experimental: as §3
(§4) Cell growth inhibition assay and data analysis: Cells were plated at proper density in 96-well plates such that they would remain in log growth at the end of assay time. The cells were allowed to attach overnight before being exposed to CGC-11047 for 72 h. Drugs were dissolved in water as 100 mM stock. For the dose response study, a set of 9 doses from 5×10^−3 to 1.3×10^−8 M (final concentration) in 1:5 serial dilution were added in triplicate wells. The final DMSO concentration in the treated well was 0.3% or less. The cell growth was determined using Cell Titer Glo (CTG) assay (CellTiter-Glo Luminescent Cell Viability Assay, Promega, Madison, Wis.), with slight modification form manufacturer's protocol, at day 0 (time when drug was added) and at day 3 of drug exposure. Briefly, CTG reagent was diluted with PBS (1:1, volume: volume) and the culture media was removed from the 96-well plate prior to adding 50 μl per well of the diluted CTG reagent. Luminescence from the assay was recorded using BIO-TEK FLx800.
(§5) Data calculations were made according to the method described by the NCI/NIH DTP Human Tumor Cell Line Screen Process (http://dtp.nci.nih.gov/branches/btb/ivclsp.html) and as described previously (Monks, A et al., JNCI 83:757-766, 1991). The percent growth curve is calculated as [(T−T0)/(C−T0)]×100, where T0 is the cell count at day 0, C is the vehicle control (e.g. 0.3% DMSO without drug) cell count at day 3, and T is the cell count at the test concentration. The GI50 and TGI value are determined as the drug concentration that results in a 50% and 0% growth at 72 h drug exposure. LC50 is calculated as [(T−T0)/T0]×100=−50, when T<T0.

HCC1569 = assay: Cell growth inhibition assay (Cell Titer Glo); format: cell-based, human; conditions: HCC1569, Basal A, 72 h
Experimental: as §3, §4, §5

AU565 = assay: Cell growth inhibition assay (Cell Titer Glo); format: cell-based, human; conditions: AU565, Luminal, 72 h
Experimental: as §3, §4, §5

T47D = assay: Cell growth inhibition assay (Cell Titer Glo); format: cell-based, human; conditions: Luminal, 72 h
Experimental: as §3, §4, §5

184B5 = assay: Cell growth inhibition assay (Cell Titer Glo); format: cell-based, human; conditions: 184B5, HMEC, 72 h
Experimental: as §3, §4, §5

SUM1315MO2 = assay: Cell growth inhibition assay (Cell Titer Glo); format: cell-based, human; conditions: SUM1315MO2, Basal B, 72 h
Experimental: as §3, §4, §5

MDAMB231 = assay: Cell growth inhibition assay (Cell Titer Glo); format: cell-based, human; conditions: MDAMB231, Basal B, 72 h
Experimental: as §3, §4, §5

BT474 = assay: Cell growth inhibition assay (Cell Titer Glo); format: cell-based, human; conditions: BT474, Luminal, 72 h
Experimental: as §3, §4, §5

MCF12A = assay: Cell growth inhibition assay (Cell Titer Glo); format: cell-based, human; conditions: N, Basal B, 72 h
Experimental: as §3, §4, §5

SUM229PE = assay: Cell growth inhibition assay (Cell Titer Glo); format: cell-based, human; conditions: Basal B, 72 h
Experimental: as §3, §4, §5

ZR7530 = assay: Cell growth inhibition assay (Cell Titer Glo); format: cell-based, human; conditions: ZR7530, Luminal, 72 h
Experimental: as §3, §4, §5

HCC70 cells = assay: Caspase Glo 3/7 assay (apoptosis); format: cell-based, human; conditions: select sensitive cell lines except T47D (FIG. 4: HCC70); 0.3, 10 and 300 uM
Experimental: FIGS. 4A and 4B. Effect of CGC-11047 on HCC70 cells with respect to cell cycle and apoptosis. In FIG. 4A, cells were treated for 72 hours with 0, 0.3, 10, or 100 μM CGC-11047. Shown are percentage of the cell population is G0-G1, S, or G2-M phase of cell growth. In FIG. 4B, cells were treated for 42, 48, or 72 hours with 0.3, 10, or 300 μM CGC-11047. Shown is the caspase activity (apoptosis) of treated cells within each condition compared to untreated controls.
as §1, §2

Question: For `CCNCCCNC/C=C\CNCCCNCC` [CGC-11047], which “apoptosis (caspase 3/7 activity)” value (T47D cells) is on record?
Answer: The value was “significant accumulation of apoptosis”.

Question: What about the GI50 ([1]; Homo sapiens, read-out: median GI50) of the same molecule?
Answer: The GI50 was ~40 µM.

Question: What about the GI50 ([1]; units given in the value, read-out: GI50 range of the cell lines tested) of the same molecule?
Answer: Its GI50 is 0.4 to 5000 µM.

Question: What about the “TGI” value (HCC1500) of the same molecule?
Answer: Its value is 600 µM.

Question: What about the GI50 (HCC1500; Homo sapiens) of the same molecule?
Answer: Its GI50 is 20 µM.

Question: And the “TGI” value (HCC1569)?
Answer: Its value is 2000 µM.

Question: What about the GI50 (HCC1569; Homo sapiens) of the same molecule?
Answer: The GI50 was 220 µM.

Question: What about the “TGI” value (AU565) of the same molecule?
Answer: The value was >30 µM.

Question: And the GI50 (AU565; Homo sapiens)?
Answer: The GI50 was 40 µM.

Question: What about the GI50 (T47D; Homo sapiens) of the same molecule?
Answer: Its GI50 is 0.4 µM.

Question: And the “TGI” value (T47D)?
Answer: The value was 200 µM.

Question: And the “TGI” value (184B5)?
Answer: The value was 400 µM.

Question: And the GI50 (184B5; Homo sapiens)?
Answer: The GI50 was 300 µM.

Question: What about the GI50 (SUM1315MO2; Homo sapiens) of the same molecule?
Answer: Its GI50 is 700 µM.

Question: And the “TGI” value (SUM1315MO2)?
Answer: The value was 1300 µM.

Question: What about the GI50 (MDAMB231; Homo sapiens, MDA-MB-231) of the same molecule?
Answer: Its GI50 is 2000 µM.

Question: What about the “TGI” value (MDAMB231) of the same molecule?
Answer: Its value is >5000 µM.

Question: What about the “TGI” value (BT474) of the same molecule?
Answer: The value was 1000 µM.

Question: And the GI50 (BT474; Homo sapiens, BT-474)?
Answer: Its GI50 is 400 µM.

Question: And the GI50 (MCF12A; Homo sapiens, MCF-12A)?
Answer: The GI50 was 100 µM.

Question: What about the “TGI” value (MCF12A) of the same molecule?
Answer: Its value is >100 µM.

Question: What about the “TGI” value (SUM229PE) of the same molecule?
Answer: The value was 1100 µM.

Question: And the GI50 (SUM229PE; Homo sapiens)?
Answer: Its GI50 is 90 µM.

Question: And the GI50 (ZR7530; Homo sapiens, ZR-75-30)?
Answer: Its GI50 is 0.8 µM.

Question: And the “TGI” value (ZR7530)?
Answer: Its value is 1000 µM.

Question: And the “apoptosis (caspase 3/7 activity)” value (HCC70 cells)?
Answer: Its value is “very little apoptosis detected”.

— patent US20110183336A1, “Method to Predict Responsiveness of Breast Cancer to Polyamine-Type Chemotherapy” (THE REGENTS OF THE UNIVERSITY OF CALIFORNIA, priority 2007, published 2011)
